Results on one molecule are retold here after patent publication US10675271B2, “Clonidine and/or clonidine derivatives for use in the prevention and/or treatment of adverse side effects of chemotherapy” (ONXEO, priority 2015, dated 2020).

The test system of the assay is patients with head and neck cancer. As for the experimental part:
A phase II, multicentre, randomised, double-blind, placebo-controlled study was performed to compare the efficacy of the mucoadhesive buccal tablets of Example 1D, comprising 50 μg of clonidine hydrochloride, applied once daily to that of placebo in the prevention and treatment of […] following radiotherapy in patients with head and neck cancer (suffering from a newly diagnosed squamous cell carcinoma of the oral cavity, oropharynx, hypopharynx or larynx). These patients received, within 15 weeks after curative surgery, a cumulative radiation dose of radiation ranging from 50 to 70 Gray in oral cavity, based on a daily dosing between 1.8 and 2.2 Gy, combined with platinum-based chemotherapy, based on a weekly or tri-weekly cycle. Clonidine was administered in the form of a mucoadhesive tablet that was applied into the mouth, on the upper gum, for about 30 seconds, after which it remained in place for several hours. The treatment with clonidine hydrochloride started from 1 to 3 days before radiotherapy until the end of radiotherapy, for up to 8 weeks. Patients were evaluated twice a week during the radiotherapy period, then one month after stop of radiotherapy.

Setting [1] is: mucoadhesive buccal tablet of Example 1D, 50 μg clonidine hydrochloride once daily, up to 8 weeks, radiotherapy plus platinum-based chemotherapy, placebo 12.9%.

The structures appear in SMILES notation.

In turn, `Cl.Clc1cccc(Cl)c1NC1=NCCN1` [Clonidine] returned an occurrence of nausea (additional identical experiment using 100 μg of clonidine hydrochloride) of 46.9%. In addition, under setting [1], the “Cough (reported adverse side effect, occurrence)” value came out at 5.5% and the “Fatigue (reported adverse side effect, occurrence)” value worked out at 9.1%. For the same molecule, the “Headache (reported adverse side effect, occurrence)” value (mucoadhesive buccal tablet of Example 1D, 50 μg clonidine hydrochloride once daily, up to 8 weeks, radiotherapy plus platinum-based chemotherapy, placebo 14.5%) is 9.1%. In addition, the “Diarrhoea (reported adverse side effect, occurrence)” value (mucoadhesive buccal tablet of Example 1D, 50 μg clonidine hydrochloride once daily, up to 8 weeks, radiotherapy plus platinum-based chemotherapy, placebo 21.0%) worked out at 12.7%. For the same molecule, the “Asthenia (reported adverse side effect, occurrence)” value (mucoadhesive buccal tablet of Example 1D, 50 μg clonidine hydrochloride once daily, up to 8 weeks, radiotherapy plus platinum-based chemotherapy, placebo 24.2%) is reported as 16.4%. Moreover, the “Vomiting (reported adverse side effect, occurrence)” value (mucoadhesive buccal tablet of Example 1D, 50 μg clonidine hydrochloride once daily, up to 8 weeks, radiotherapy plus platinum-based chemotherapy, placebo 38.7%) was 25.5%. Also, where the note is “mucoadhesive buccal tablet of Example 1D, 50 μg clonidine hydrochloride once daily, up to 8 weeks, radiotherapy plus platinum-based chemotherapy, placebo 71.0%”, the “Nausea (reported adverse side effect, occurrence)” value is on record as 52.7%.
